Laboratory results as given in patent US20240368121A1, “ESTROGEN RECEPTOR DEGRADERS, PHARMACEUTICAL COMPOSITIONS THEREOF, AND THEIR THERAPEUTIC APPLICATIONS” (BioTheryX, Inc., priority 2021, published 2024).

How the values were obtained:
Format in all cases: cell-based
ERα = biological target: T1, ERα (Homo sapiens, UniProt P03372); assay: Protein degradation assay: ERα in MCF-7 cells via western blot; settings: 6 h; for ERα Protein Degradation 1 nM: 1 nM compound; for ERα Protein Degradation 10 nM: 10 nM compound; for ERα Protein Degradation 100 nM: 100 nM compound
T1 construct: degrading an ERα in MCF-7 cells via a western blot; endogenous in cells; host or cells: MCF-7
T1 sequence (P03372 1-595): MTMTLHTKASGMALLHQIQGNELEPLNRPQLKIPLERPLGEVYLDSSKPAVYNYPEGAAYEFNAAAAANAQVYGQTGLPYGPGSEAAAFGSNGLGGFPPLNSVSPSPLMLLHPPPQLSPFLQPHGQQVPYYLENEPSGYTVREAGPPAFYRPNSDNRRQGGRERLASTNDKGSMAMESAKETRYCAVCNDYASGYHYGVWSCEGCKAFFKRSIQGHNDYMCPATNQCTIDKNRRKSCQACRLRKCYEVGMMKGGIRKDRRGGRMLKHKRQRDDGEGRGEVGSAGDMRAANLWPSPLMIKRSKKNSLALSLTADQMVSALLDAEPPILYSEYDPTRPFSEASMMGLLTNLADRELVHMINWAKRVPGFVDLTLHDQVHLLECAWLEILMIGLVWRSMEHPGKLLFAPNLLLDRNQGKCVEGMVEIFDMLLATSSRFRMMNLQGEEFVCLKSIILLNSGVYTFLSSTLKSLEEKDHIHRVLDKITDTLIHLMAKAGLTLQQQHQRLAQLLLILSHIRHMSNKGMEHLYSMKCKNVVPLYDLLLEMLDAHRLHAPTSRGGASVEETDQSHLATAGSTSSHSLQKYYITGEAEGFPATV
Summary of the method: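 MCF-7 cells in MEM/10% FBS with insulin, seeded 300,000/well, treated 6 h at set concentrations (e.g., 1 nM–1 μM). Whole-cell lysates immunoblotted for ERα with GAPDH loading control, chemiluminescent detection; percentage degradation reported in binned categories (≥50%, 25–50%, 10–25%, <10%).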

MCF7 cells = assay: Cell viability assay ([…]-GLO, 6-day treatment); settings: Homo sapiens, MCF7, 144 h; MCF-7 cells, 6 days, CTG; read-out: Inhibition of Cancerous Cells IC50 MCF-7
Summary of the method: (§1)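 MCF7 (MEM) and T47D (RPMI with insulin), both with 10% FBS, at 1,000 cells/well, treated with a 10-point compound dose series for 6 days, with medium and compound refreshed once. Viability read by CellTiter-Glo luminescence.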

T47D cells = assay: Cell viability assay ([…]-GLO, 6-day treatment); settings: Homo sapiens, 144 h, 6 days, CTG, read-out: Inhibition of Cancerous Cells IC50 T47D
Summary of the method: as §1

Row | SMILES | ERα Protein Degradation 1 nM (ERα) | ERα Protein Degradation 10 nM (ERα) | ERα Protein Degradation 100 nM (ERα) | IC50 (MCF7 cells) [nM] | IC50 (T47D cells) [nM]
1 | O=C1CCC(N2Cc3c(cc(F)cc3C3CCN(CCCCCCOc4ccc([C@@H]5c6ccc(O)cc6CC[C@@H]5c5ccccc5)cc4)CC3)C2=O)C(=O)N1 (stereo partly drawn) [Compound A2, 3-(6-Fluoro-4-(1-(6-(4-((1R,2S)-6-hydroxy-2-phenyl-1,2,3,4-tetrahydro-naphthalen-1-yl)phenoxy)hexyl)piperidin-4-yl)-1-oxoisoindolin-2-yl)piperidine-2,6-dione] | D (a percentage degradation value of less than 10%) | D (a percentage degradation value of less than 10%) | D (a percentage degradation value of less than 10%) | 0.72 | 0.61
2 | O=C1CCC(N2Cc3c(cc(F)cc3C3CCN(CC4CCN(c5ccc([C@@H]6c7ccc(O)cc7CC[C@@H]6c6ccccc6)cc5)CC4)CC3)C2=O)C(=O)N1 (stereo partly drawn) [Compound A3, 3-(6-Fluoro-4-(1-((1-(4-((1R,2S)-6-hydroxy-2-phenyl-1,2,3,4-tetrahydro-naphthalen-1-yl)phenyl)piperidin-4-yl)methyl)piperidin-4-yl)-1-oxoisoindolin-2-yl)piperidine-2,6-dione] | D (a percentage degradation value of less than 10%) | D (a percentage degradation value of less than 10%) | D (a percentage degradation value of less than 10%) | 0.2 | 0.44
3 | O=C1CCC(N2Cc3cc(C4CCN(CCCCOc5ccc([C@@H]6c7ccc(O)cc7CC[C@@H]6c6ccccc6)cc5)CC4)c(F)cc3C2=O)C(=O)N1 (stereo partly drawn) [Compound A4, 3-(6-Fluoro-5-(1-(4-(4-((1R,2S)-6-hydroxy-2-phenyl-1,2,3,4-tetrahydro-naphthalen-1-yl)phenoxy)butyl)piperidin-4-yl)-1-oxoisoindolin-2-yl)piperidine-2,6-dione] | D (a percentage degradation value of less than 10%) | D (a percentage degradation value of less than 10%) | D (a percentage degradation value of less than 10%) | 0.06 | 0.08
4 | O=C1CCC(N2Cc3cc(C4CCN(CCCCCCOc5ccc([C@@H]6c7ccc(O)cc7CC[C@@H]6c6ccccc6)cc5)CC4)c(F)cc3C2=O)C(=O)N1 (stereo partly drawn) [Compound A5, 3-(6-Fluoro-5-(1-(6-(4-((1R,2S)-6-hydroxy-2-phenyl-1,2,3,4-tetrahydro-naphthalen-1-yl)phenoxy)hexyl)piperidin-4-yl)-1-oxoisoindolin-2-yl)piperidine-2,6-dione] | A (a percentage degradation value of no less than 50%) | A (a percentage degradation value of no less than 50%) | A (a percentage degradation value of no less than 50%) | 0.37 | 0.22
5 | O=C1CCC(N2Cc3cc(C4CCN(CC5CCN(c6ccc([C@@H]7c8ccc(O)cc8CC[C@@H]7c7ccccc7)cc6)CC5)CC4)c(F)cc3C2=O)C(=O)N1 (stereo partly drawn) [Compound A6, 3-(6-fluoro-5-(1-((1-(4-((1R,2S)-6-hydroxy-2-phenyl-1,2,3,4-tetrahydro-naphthalen-1-yl)phenyl)piperidin-4-yl)methyl)piperidin-4-yl)-1-oxoisoindolin-2-yl)piperidine-2,6-dione] | B (a percentage degradation value of less than 50% and no less than 25%) | B (a percentage degradation value of less than 50% and no less than 25%) | D (a percentage degradation value of less than 10%) | 4 | 0.47
6 | O=C1CCC(N2Cc3c(csc3C3CCN(CC4CCN(c5ccc([C@@H]6c7ccc(O)cc7CC[C@@H]6c6ccccc6)cc5)CC4)CC3)C2=O)C(=O)N1 (stereo partly drawn) [Compound A7, 3-(1-(1-((1-(4-((1R,2S)-6-hydroxy-2-phenyl-1,2,3,4-tetrahydronaphthalen-1-yl)phenyl)piperidin-4-yl)methyl)piperidin-4-yl)-4-oxo-4H-thieno[3,4-c]pyrrol-5(6H)-yl)-piperidine-2,6-dione] | D (a percentage degradation value of less than 10%) | D (a percentage degradation value of less than 10%) | D (a percentage degradation value of less than 10%) | 145 | 0.18
7 | O=C1CCC(N2Cc3cc(N4CCN(CC5CCN(c6ccc([C@@H]7c8ccc(O)cc8CC[C@@H]7c7ccccc7)cc6)CC5)CC4)ccc3C2=O)C(=O)N1 (stereo partly drawn) [Compound A14, 3-(5-(4-((1-(4-((1R,2S)-6-Hydroxy-2-phenyl-1,2,3,4-tetrahydronaphthalen-1-yl)-phenyl)piperidin-4-yl)methyl)piperazin-1-yl)-1-oxoisoindolin-2-yl)piperidine-2,6-dione] | A (a percentage degradation value of no less than 50%) | A (a percentage degradation value of no less than 50%) | A (a percentage degradation value of no less than 50%) | 1.1 | 0.86
8 | O=C1CCC(N2Cc3c(csc3C3CCN(CCCCOc4ccc([C@@H]5c6ccc(O)cc6CC[C@@H]5c5ccccc5)cc4)CC3)C2=O)C(=O)N1 (stereo partly drawn) [Compound A19, 3-(1-(1-(4-(4-((1R,2S)-6-Hydroxy-2-phenyl-1,2,3,4-tetrahydronaphthalen-1-yl)-phenoxy)butyl)piperidin-4-yl)-4-oxo-4H-thieno[3,4-c]pyrrol-5(6H)-yl)piperidine-2,6-dione] | D (a percentage degradation value of less than 10%) | D (a percentage degradation value of less than 10%) | D (a percentage degradation value of less than 10%) | 2.2 | 0.07
9 | Cn1nc(C2CCC(=O)NC2=O)c2ccc(OCC(=O)N3CCN(CCCCOc4ccc([C@@H]5c6ccc(O)cc6CC[C@@H]5c5ccccc5)cc4)CC3)cc21 (stereo partly drawn) [Compound B2, 3-(6-(2-(4-(4-(4-((1R,2S)-6-hydroxy-2-phenyl-1,2,3,4-tetrahydronaphthalen-1-yl)phenoxy)butyl)piperazin-1-yl)-2-oxoethoxy)-1-methyl-1H-indazol-3-yl)piperidine-2,6-dione] | B (a percentage degradation value of less than 50% and no less than 25%) | B (a percentage degradation value of less than 50% and no less than 25%) | C (a percentage degradation value of less than 25% and no less than 10%) | 0.25 | 0.01
10 | O=C1CCC(c2cccc(OCC(=O)N3CCN(CCCCOc4ccc([C@@H]5c6ccc(O)cc6CC[C@@H]5c5ccccc5)cc4)CC3)c2)C(=O)N1 (stereo partly drawn) [Compound B5, 3-(3-(2-(4-(4-(4-((1R,2S)-6-hydroxy-2-phenyl-1,2,3,4-tetrahydronaphthalen-1-yl)phenoxy)butyl)piperazin-1-yl)-2-oxoethoxy)phenyl)piperidine-2,6-dione] | D (a percentage degradation value of less than 10%) | D (a percentage degradation value of less than 10%) | D (a percentage degradation value of less than 10%) | 1.2 | 0.48
